Reference: ChEMBL document CHEMBL1201861, “Genomics of Drug Sensitity in Cancer screening data, Wellcome Trust Sanger Institute”

Columns and labels:
Experiment in all cases: cells
Assay type in all cases: functional, cell-based
Settings in all cases: Homo sapiens
[1] = system: COLO-680N;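 also: cell viability assay used to measure inhibition of COLO-680N cell growth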
Description: SANGER: Inhibition of human COLO-680N cell growth in a cell viability assay.

[2] = system: JEG-3;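 also: growth inhibition of human JEG-3 cells, read out with a cell viability assay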
Description: SANGER: Inhibition of human JEG-3 cell growth in a cell viability assay.

[3] = system: ME-180;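 also: cell viability assay measuring growth inhibition of ME-180 cells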
Description: SANGER: Inhibition of human ME-180 cell growth in a cell viability assay.

[4] = system: SBC-5;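 also: cell viability assay read-out, IC50 is the concentration that inhibits growth of the cells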
Description: SANGER: Inhibition of human SBC-5 cell growth in a cell viability assay.

[5] = system: MHH-ES-1;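 also: cell growth inhibition measured by a cell viability assay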
Description: SANGER: Inhibition of human MHH-ES-1 cell growth in a cell viability assay.

[6] = system: NCI-H1563;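 also: growth inhibition of human NCI-H1563 cells, read out with a cell viability assay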
Description: SANGER: Inhibition of human NCI-H1563 cell growth in a cell viability assay.

[7] = system: NCI-H810;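 also: IC50 reflects inhibition of cancer cell line growth, read out with a cell viability assay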
Description: SANGER: Inhibition of human NCI-H810 cell growth in a cell viability assay.

[8] = system: SK-MEL-24;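 also: growth inhibition read out by a cell viability assay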
Description: SANGER: Inhibition of human SK-MEL-24 cell growth in a cell viability assay.

[9] = system: HMV-2 cell line;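 also: growth inhibition of HMV-II cells, read out with a cell viability assay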
Description: SANGER: Inhibition of human HMV-II cell growth in a cell viability assay.

[10] = system: UACC-62;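 also: growth inhibition of human UACC-62 cells, read out by a cell viability assay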
Description: SANGER: Inhibition of human UACC-62 cell growth in a cell viability assay.

[11] = system: ChaGo-K-1;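 also: growth inhibition of ChaGo-K-1 cells, read out with a cell viability assay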
Description: SANGER: Inhibition of human ChaGo-K-1 cell growth in a cell viability assay.

[12] = system: OAW-42;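 also: growth inhibition of OAW-42 cells, read out with a cell viability assay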
Description: SANGER: Inhibition of human OAW-42 cell growth in a cell viability assay.

[13] = system: LCLC-97TM1;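 also: cell viability assay measuring growth inhibition of human LCLC-97TM1 cells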
Description: SANGER: Inhibition of human LCLC-97TM1 cell growth in a cell viability assay.

[14] = system: ACHN;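 also: cell viability read-out used to gauge how strongly growth of human ACHN cells is suppressed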
Description: SANGER: Inhibition of human ACHN cell growth in a cell viability assay.

[15] = system: PC-3;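 also: cell viability assay measuring growth inhibition of PC-3 cells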
Description: SANGER: Inhibition of human PC-3 cell growth in a cell viability assay.

[16] = system: CAL-54;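 also: growth inhibition of CAL-54 cells, read out by a viability measurement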
Description: SANGER: Inhibition of human CAL-54 cell growth in a cell viability assay.

[17] = system: DBTRG-05MG;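 also: cell viability assay measuring growth inhibition of human DBTRG-05MG cells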
Description: SANGER: Inhibition of human DBTRG-05MG cell growth in a cell viability assay.

[18] = system: NCI-H28;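 also: growth inhibition of human NCI-H28 cells, read out as cell viability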
Description: SANGER: Inhibition of human NCI-H28 cell growth in a cell viability assay.

[19] = system: Ca9-22;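 also: growth inhibition of Ca9-22 cells, read out with a cell viability assay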
Description: SANGER: Inhibition of human Ca9-22 cell growth in a cell viability assay.

[20] = system: EFO-21;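 also: growth inhibition of EFO-21 cells measured with a viability assay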
Description: SANGER: Inhibition of human EFO-21 cell growth in a cell viability assay.

[21] = system: KP-4;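 also: human KP-4 cells, with growth inhibition read out through a cell viability assay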
Description: SANGER: Inhibition of human KP-4 cell growth in a cell viability assay.

[22] = system: HCT-15;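 also: cell viability readout, IC50 reflecting suppression of HCT-15 cell growth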
Description: SANGER: Inhibition of human HCT-15 cell growth in a cell viability assay.

[23] = system: SK-N-AS;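 also: growth inhibition of human SK-N-AS cells, measured with a cell viability assay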
Description: SANGER: Inhibition of human SK-N-AS cell growth in a cell viability assay.

[24] = system: NCI-H522;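 also: cell viability assay measuring growth inhibition of human NCI-H522 cells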
Description: SANGER: Inhibition of human NCI-H522 cell growth in a cell viability assay.

[25] = system: NCI-H2122;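 also: growth inhibition of the cells, read out with a cell viability assay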
Description: SANGER: Inhibition of human NCI-H2122 cell growth in a cell viability assay.

[26] = system: Capan-2;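 also: Capan-2 cell growth inhibition, read out with a viability assay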
Description: SANGER: Inhibition of human Capan-2 cell growth in a cell viability assay.

[27] = system: CaR-1;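 also: growth inhibition of human CaR-1 cancer cells, read out with a cell viability assay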
Description: SANGER: Inhibition of human CaR-1 cell growth in a cell viability assay.

[28] = system: T47D;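 also: growth inhibition of human T47D cells, measured with a cell viability assay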
Description: SANGER: Inhibition of human T47D cell growth in a cell viability assay.

[29] = system: RO82-W-1;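 also: growth inhibition of human RO82-W-1 cells, measured with a cell viability assay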
Description: SANGER: Inhibition of human RO82-W-1 cell growth in a cell viability assay.

[30] = system: SW1783;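 also: cell growth inhibition measured with a viability assay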
Description: SANGER: Inhibition of human SW1783 cell growth in a cell viability assay.

[31] = system: HCC70;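 also: cell viability assay measuring how strongly the compound suppresses proliferation of HCC70 cells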
Description: SANGER: Inhibition of human HCC70 cell growth in a cell viability assay.

[32] = system: SW1573;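 also: growth inhibition of SW1573 cells, read out with a cell viability assay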
Description: SANGER: Inhibition of human SW1573 cell growth in a cell viability assay.

[33] = system: HCC2157;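 also: growth inhibition of the cancer cell line, read out as cell viability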
Description: SANGER: Inhibition of human HCC2157 cell growth in a cell viability assay.

[34] = system: MDA-MB-453
Description: SANGER: Inhibition of human MDA-MB-453 cell growth in a cell viability assay.

[35] = system: CAL-85-1;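 also: growth inhibition of human CAL-85-1 cells, read out with a cell viability assay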
Description: SANGER: Inhibition of human CAL-85-1 cell growth in a cell viability assay.

[36] = system: Huh-7;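 also: HuH-7 cell growth inhibition, read out with a cell viability assay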
Description: SANGER: Inhibition of human HuH-7 cell growth in a cell viability assay.

[37] = system: NCI-H2347;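 also: growth inhibition of the cell line, read out with a cell viability assay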
Description: SANGER: Inhibition of human NCI-H2347 cell growth in a cell viability assay.

[38] = system: NCI-H1437;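 also: growth inhibition of human NCI-H1437 cells, read out by a cell viability assay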
Description: SANGER: Inhibition of human NCI-H1437 cell growth in a cell viability assay.

[39] = system: DOK;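 also: cell viability assay read-out, values reflect inhibition of cell growth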
Description: SANGER: Inhibition of human DOK cell growth in a cell viability assay.

[40] = system: SW948;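 also: growth inhibition of SW948 cells, read out with a cell viability assay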
Description: SANGER: Inhibition of human SW948 cell growth in a cell viability assay.

[41] = system: HCC 2998;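 also: growth inhibition of human HCC2998 cells, measured with a cell viability read-out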
Description: SANGER: Inhibition of human HCC2998 cell growth in a cell viability assay.

[42] = system: OAW-28;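 also: growth inhibition of OAW-28 cells, read out with a cell viability assay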
Description: SANGER: Inhibition of human OAW-28 cell growth in a cell viability assay.

[43] = system: COLO-679
Description: SANGER: Inhibition of human COLO-679 cell growth in a cell viability assay.

[44] = system: HCT-116
Description: SANGER: Inhibition of human HCT-116 cell growth in a cell viability assay.

[45] = system: SiHa;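 also: Viability-based readout of growth inhibition in SiHa cells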
Description: SANGER: Inhibition of human SiHa cell growth in a cell viability assay.

[46] = system: MC-IXC;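 also: growth inhibition of MC-IXC cells, read out with a cell viability assay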
Description: SANGER: Inhibition of human MC-IXC cell growth in a cell viability assay.

[47] = system: NCI-H1651;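 also: Read-out is a cell viability assay, with IC50 expressing inhibition of NCI-H1651 cell growth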
Description: SANGER: Inhibition of human NCI-H1651 cell growth in a cell viability assay.

[48] = system: NCI-H650;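 also: growth inhibition of NCI-H650 cells, read out by a viability assay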
Description: SANGER: Inhibition of human NCI-H650 cell growth in a cell viability assay.

[49] = system: MKN-28;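 also: cell viability assay read-out, IC50 reflects suppression of growth of human MKN-28 cells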
Description: SANGER: Inhibition of human MKN28 cell growth in a cell viability assay.

[50] = system: D-542MG
Description: SANGER: Inhibition of human D-542MG cell growth in a cell viability assay.

[51] = system: 786-0
Description: SANGER: Inhibition of human 786-0 cell growth in a cell viability assay.

[52] = system: HuO-3N1;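 also: cell viability readout used to measure how strongly compounds suppress proliferation of human HuO-3N1 cells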
Description: SANGER: Inhibition of human HuO-3N1 cell growth in a cell viability assay.

[53] = system: TE-15;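 also: cell viability readout of growth inhibition in TE-15 cells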
Description: SANGER: Inhibition of human TE-15 cell growth in a cell viability assay.

[54] = system: YT
Description: SANGER: Inhibition of human YT cell growth in a cell viability assay.

[55] = system: NCI-H2196;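 also: cell viability assay used as the readout of growth inhibition in NCI-H2196 cells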
Description: SANGER: Inhibition of human NCI-H2196 cell growth in a cell viability assay.

[56] = system: NCI-H524
Description: SANGER: Inhibition of human NCI-H524 cell growth in a cell viability assay.

[57] = system: SNU-C1
Description: SANGER: Inhibition of human SNU-C1 cell growth in a cell viability assay.

[58] = system: UACC-812
Description: SANGER: Inhibition of human UACC-812 cell growth in a cell viability assay.

[59] = system: NCI-H889
Description: SANGER: Inhibition of human NCI-H889 cell growth in a cell viability assay.

[60] = system: NCI-H1882
Description: SANGER: Inhibition of human NCI-H1882 cell growth in a cell viability assay.

[61] = system: NCI-H1522
Description: SANGER: Inhibition of human NCI-H1522 cell growth in a cell viability assay.

[62] = system: REH
Description: SANGER: Inhibition of human REH cell growth in a cell viability assay.

[63] = system: MRK-nu-1
Description: SANGER: Inhibition of human MRK-nu-1 cell growth in a cell viability assay.

[64] = system: CPC-N
Description: SANGER: Inhibition of human CPC-N cell growth in a cell viability assay.

[65] = system: EB2
Description: SANGER: Inhibition of human EB2 cell growth in a cell viability assay.

Measured: IC50

O=c1cc(N2CCOCC2)oc2c(-c3cccc4c3sc3ccccc34)cccc12
> 2000 nM: [1] | [2] | [3] | [4] | [5] | [6] | [7] | [8] | [9] | [10] | [11] | [12] | [13] | [14] | [15] | [16] | [17] | [18] | [19] | [20] | [21] | [22] | [24] | [25] | [26] | [27] | [28] | [29] | [30] | [31] | [32] | [33] | [34] | [35] | [36] | [37] | [38] | [39] | [40] | [41] | [42] | [43] | [44] | [45] | [46] | [47] | [48] | [49] | [50] | [51]
622 nM: [23]
466 nM: [52]

Cc1ccc(NC(=O)c2cccc(C(C)(C)C#N)c2)cc1Nc1ccc2ncn(C)c(=O)c2c1
> 4000 nM: [53] | [54] | [55] | [56] | [57] | [58] | [59] | [60] | [33] | [61] | [62] | [63] | [50] | [64] | [65]
222 nM: [41]

CCn1c(-c2nonc2N)nc2cnc(Oc3cccc(NC(=O)c4ccc(OCCN5CCOCC5)cc4)c3)cc21 [GSK-269962A]
576 nM: [63]
> 2500 nM: [53] | [54] | [55] | [56] | [57] | [58] | [59] | [60] | [33] | [61] | [41] | [62] | [50] | [64] | [65]

Cc1[nH]c(/C=C2\C(=O)Nc3ccc(S(=O)(=O)Cc4c(Cl)cccc4Cl)cc32)c(C)c1C(=O)N1CCC[C@@H]1CN1CCCC1 [PHA-665752]
> 2000 nM: [53] | [54] | [55] | [56] | [57] | [58] | [59] | [60] | [33] | [61] | [62] | [63] | [64] | [65]

CCCS(=O)(=O)Nc1ccc(F)c(C(=O)c2c[nH]c3ncc(Cl)cc23)c1F [PLX-4720]
4530 nM: [17]
1100 nM: [43]
2880 nM: [52]
2310 nM: [21]
> 10000 nM: [1] | [2] | [3] | [4] | [5] | [6] | [7] | [8] | [9] | [10] | [11] | [12] | [13] | [14] | [15] | [16] | [18] | [19] | [20] | [22] | [23] | [24] | [25] | [26] | [27] | [28] | [29] | [30] | [31] | [32] | [33] | [34] | [35] | [36] | [37] | [38] | [39] | [40] | [41] | [42] | [44] | [45] | [46] | [47] | [48] | [49] | [50] | [51]
